These results are taken from US10137171B2, “Methods of treatment using a pentapeptide derived from the C-Terminus of Glucagon-Like Peptide 1 (GLP-1)” (The General Hospital Corporation, priority 2011, dated 2018).

Test [1] deals with diet-induced obese mice. Put plainly: Dual energy X-ray absorptiometry (DXA) of lean, fat and total body mass. The test is classed as in vivo, mouse. An excerpt: FIGS. 2A-D are bar graphs showing the results of determinations of lean, fat, and total body mass by dual X-ray absorptiometry (DXA) of mice receiving continuous infusions of the pentapeptide […] or control vehicle alone for 16 weeks. At the time of the study the mice were 39 weeks of age and on the very high fat diet for 33 weeks. 2A. Fat versus lean mass. The fat mass is 40% less in the pentapeptide infused compared to the control vehicle infused mice. *P<0.0008. […] 2B. Total body mass (lean+fat) differences in peptide infused versus vehicle control infused obese mice. *P<0.002. 2C. Fat mass expressed as the fraction of fat mass in peptide infused mice versus vehicle control infused obese mice. *P<0.0008. 2D. Fat mass expressed as the percentage of body weight, peptide-infused versus vehicle control-infused obese mice. *P<0.001. N=6 mice per group. Values are means+/−SEMs.
Mice were anesthetized with 0.02 ml of a 2% tribromoethanol solution per gram of body weight and scanned with a dual X-ray apparatus (Lunar Piximus, GE Medical Systems, Wauwatosa, Wis.). Total, fat, and lean body mass was quantitatively determined.

Test [2] concerns diet-induced obese mice. Put plainly: Liver triglyceride content. The test is classed as in vivo, mouse. The procedure:
FIGS. 6A-B are bar graphs showing that infusions of GLP-1(32-36)amide in mice prevent the accumulation of triglyceride in the livers of mice fed a very high-diet (VHFD). Triglyceride contents of samples of livers of mice fed a high-fat diet (VHFD) for 32 weeks (age 38 weeks). 6A. Triglyceride levels of pentapeptide-infused obese mice as a percent of the vehicle-infused control mice set at 100%. *p<0.005. 6B. Triglyceride content levels of 60.5+/−12.1 mg/mg protein. Infusion of the pentapeptide lowered the triglyceride content by 65% to 21.1+/−5.6 mg/mg protein, indistinguishable from the values in the livers of lean mice fed low-fat chow (21.6+/−7 mg/mg protein). Data from diet-induced obese mice infused with the nonapeptide, GLP-1(28-36)amide for 16 weeks are also shown. Values are represented as % of vehicle control infused mice fed a high-fat diet (VHFD). *p<0.005, peptide vs. vehicle. N=6 mice per group. Values are means+/−SEMs.
Representative samples (2-3 gms) of livers were obtained and quick frozen on solid CO2 at the time of sacrifice and necropsy. The samples were subsequently homogenized and triglycerides were extracted and measured using a colorimetric enzymatic assay (Serum Triglyceride Determination kit, Sigma).

Test [3] deals with insulin-resistant isolated mouse hepatocytes. Description: Glucose production assay in isolated hepatocytes. It counts as cell-based. The following applies: stimulated by cAMP/dexamethasone/lactate; basal glucose production not suppressed. From the text: FIG. 8 is a bar graph showing suppression of glucose production by the pentapeptide GLP-1(32-36)amide (LVKGRamide (SEQ ID NO:1)) in insulin-resistant hepatocytes. Mice (male, C57bl/6) from 12-19 weeks of age were fasted overnight (16 hrs) and primary hepatocytes were isolated using a collagen and perfusion gradient purification. Cells were first seeded using a Dulbecco's modified Eagle's medium (DMEM) supplemented with 10% FBS, 1 g/L glucose, 2 mmol/1 sodium pyruvate, 1 micromol/L dexamethasone, and 0.1 micromol/L insulin, and later maintained in DMEM with 0.2% BSA, 1 g/L glucose, 0.1 micromol/L dexamethasone, and lnmol/L insulin. […] The readings were then normalized to total protein content determined from whole-cell lysates. […]
Primary hepatocytes (2×10^5 cells per well in twelve-well plates) were pre-treated with GLP-1(32-36)amide for 1 hour followed by the stimulation of insulin resistance by the addition of cAMP (10 microM)/dexamethasone ([…])/sodium lactate (2 mM) in glucose-free DMEM without phenol red. […] The readings were then normalized to total protein content determined from whole-cell lysates.

Setting [4] is: after 16 weeks infusion, VHFD mice (FIG. 2A).

“Also recorded” adds a separate entry of the source. Where no end group is shown, it is not given here.

Regarding “LVKGRamide (LVKGR-NH2) [GLP-1(32-36)amide, pentapeptide derived from the C-terminus of the glucoincretin hormone GLP-1]”, in the test with diet-induced obese mice [1] (after 16 weeks infusion (FIG. 2C)), the “relative (%) fat mass compared to vehicle-treated mice (DXA)” value was “decreased”. For the same substance, in the test with diet-induced obese mice [1] (setting [4]), the “fat mass reduction compared to vehicle control (DXA)” value was determined as 40% and the “lean mass change compared to vehicle control (DXA)” value is on record as “no significant difference”. Moreover, in the test with diet-induced obese mice [1] (after 16 weeks infusion, VHFD mice (FIG. 2A), listed as pentapeptide), the “lean mass change compared to vehicle control (DXA)” value is on record as “no significant changes; also recorded: no significant difference”. In the test with diet-induced obese mice [1] (after 16 weeks infusion, vs vehicle (FIG. 2B)), the “total body mass (body weight) (DXA)” value was “decreased”. In the test on diet-induced obese mice [1] (after 16 weeks infusion, vs vehicle (FIG. 2D)), the “ratio of fat mass to body weight (DXA)” value is “decreased”. The “liver triglyceride as percent of vehicle control set at 100%” value in the test with diet-induced obese mice [2] (VHFD mice (FIG. 6A)) turned out to be 35%. In addition, the “liver triglyceride content decrease compared to vehicle” value in the test with diet-induced obese mice [2] (VHFD mice, pentapeptide infusion (FIG. 6A, 6B)) is 65%. Moreover, in the test on diet-induced obese mice [2] (VHFD mice, vehicle 60.5+/-12.1, lean low-fat diet mice 21.6+/-7 (FIG. 6B)), the liver triglyceride content is 21.1+/−5.6 mg/mg protein. Besides, the “glucose production (formation)” value in test [3] is “suppression”.
